Measurements reported in US11319292B2, “Metabolically stable 5-HMF derivatives for the treatment of hypoxia” (King Abdulaziz University, priority 2020, dated 2022).

Legend:
intact SS cells = test: Inhibition of hypoxia-induced RBC sickling (RBC morphology study) in homozygous SS blood; assay type: cell-based, human; conditions: SS blood hematocrit 20%, 2.5% oxygen, 37° C., 2 hr
Source text: (§1) Materials and General Procedure: Leftover blood samples from patients with homozygous SS were obtained and utilized, based on an approved IRB protocol at the Children's Hospital of Philadelphia, with informed consent.
(§2) Experimental Procedure: The MMA series of compounds (MMA-301, MMA-304, MMA-205, MMA-401, MMA-402, MMA-403, MMA-405, MMA-406, MMA-407, MMA-408, MMA-409 and MMA-410) and the positive controls vanillin and 5-HMF were studied for their abilities to inhibit hypoxia-induced RBC sickling (RBC morphology study), increase Hb oxygen, and/or modify Hb (adduct formation) as previously published.^31,33 Briefly, homozygous SS blood (hematocrit: 20%) suspensions were incubated under air in the absence or presence of 2 and/or 5 mM concentration of test compounds at 37° C. for 1 hr. Following, the suspensions were incubated under hypoxic condition (2.5% oxygen) at 37° C. for 2 hr. Aliquot samples were fixed with 2% glutaraldehyde solution without exposure to air, and then subjected to microscopic morphological analysis. The residual samples were washed in phosphate-buffered saline, and hemolyzed in hypotonic lysis buffer for the Hb oxygen equilibrium and Hb adduct experiments. For the Hb oxygen equilibrium study, approximately 100 μl aliquot samples from the lysate were added to 4 ml of 0.1M potassium phosphate buffer, pH 7.0, in a cuvette and subjected to hemoximetry analysis using Hemox™ Analyzer (TCS Scientific Corp.) to assess P50 shifts. Another aliquot from the lysate was also subjected to Hb adduct formation study using cation-exchange HPLC (Hitachi D-7000 Series, Hitachi Instruments, Inc., San Jose, Calif.) with a weak cation-exchange column (Poly CAT A: 30 mm×4.6 mm, Poly LC, Inc., Columbia, Md.). To determine the binding of the MMA compounds to either α- or β-globin chains, the hemolysates were subjected to reversed-phase (RP) HPLC on a Hitachi D-7000 HSM Series, using a Jupiter 5 μm C-4 50×4.6 mm column, (Phenomenex®, Torrence, Calif.) and a gradient from 20% to 60% acetonitrile in 0.3% trifluoroacetic acid in 15 minutes, with UV detection at 215 nm.

Hb [1] = biological target: T1, Hb (Homo sapiens, UniProt P68871+P69905, E7V); test: Hb oxygen equilibrium study (P50 shift, Hemox Analyzer) on lysate of compound-treated SS cells; assay type: cell-based; conditions: intact SS cells; for activation at 2000 µM: 2 mM compound; for activation at 2000 µM / activation at 5000 µM: read-out: increase in Hb oxygen affinity (ΔP50); for activation at 5000 µM: 5 mM compound; for effect on Hb affinity for oxygen: 2 mM and/or 5 mM
T1 construct: Leftover blood samples from patients with homozygous SS were obtained and utilized; from tissue; host or cells: blood (red cells, then hemolysate) of patients with homozygous SS
Source text: as §1, §2

Hb [2] = biological target: T2, Hb (Homo sapiens, UniProt P68871+P69905); test: In vitro time-dependent Hb oxygen equilibrium study using normal whole blood; assay type: in vitro ADME; conditions: 2 mM; normal whole blood 30% hct; 37° C.; 1, 4 and 24 hr
T2 construct: Normal whole blood was collected from adult donors; from tissue; host or cells: normal whole blood of adult donors
Experimental: Materials and General Procedure: Normal whole blood was collected from adult donors at the Virginia Commonwealth University after informed consent, in accordance with regulations of the IRB for Protection of Human.
Experimental procedure: MMA-409 and the control 5-HMF were used to conduct time-dependent studies on Hb oxygen oxygen equilibrium using normal whole blood. The study was performed in a 96-well deep well (Thermo Scientific) plate, where each compound at 2 mM concentration was added to 600 μL of whole blood (30% hct) and incubated at 37° C. for 24 hr with shaking (at 140 rpm). Additionally, DMSO (1%) alone was also tested as a negative control. At 1, 4 and 24 hr time intervals, 75 μL aliquot of blood was removed from each well using a multichannel pipette and the reaction stopped by freezing at −80° C. until ready for hemoximetry analysis using Hemox™ Analyzer (TCS Scientific Corp.) to assess P50 shifts.^32 The observed P50 shifts values in % P50 shifts were plotted as function of time [hrs].

Hb [3] = biological target: T1, Hb; test: Hb adduct formation study by cation-exchange HPLC after incubation with intact SS cells; assay type: cell-based; conditions: 2 mM and/or 5 mM
Source text: as §1
(§3) Experimental Procedure: The MMA series of compounds (MMA-301, MMA-304, MMA-205, MMA-401, MMA-402, MMA-403, MMA-405, MMA-406, MMA-407, MMA-408, MMA-409 and MMA-410) and the positive controls vanillin and 5-HMF were studied for their abilities to inhibit hypoxia-induced RBC sickling (RBC morphology study), increase Hb oxygen, and/or modify Hb (adduct formation) as previously published.^31,33 Briefly, homozygous SS blood (hematocrit: 20%) suspensions were incubated under air in the absence or presence of 2 and/or 5 mM concentration of test compounds at 37° C. for 1 hr. Following, the suspensions were incubated under hypoxic condition (2.5% oxygen) at 37° C. for 2 hr. Aliquot samples were fixed with 2% glutaraldehyde solution without exposure to air, and then subjected to microscopic morphological analysis. The residual samples were washed in phosphate-buffered saline, and hemolyzed in hypotonic lysis buffer for the Hb oxygen equilibrium and Hb adduct experiments. […]

α- or β-globin chains = biological target: T3, α- or β-globin chains (Homo sapiens, UniProt P68871+P69905, E7V); test: Reversed-phase HPLC of hemolysates for binding to α- or β-globin chains; assay type: cell-based; conditions: 2 mM and 5 mM; intact SS cells; reverse-phase HPLC
T3 construct: Leftover blood samples from patients with homozygous SS were obtained and utilized; from tissue; host or cells: blood (red cells, then hemolysate) of patients with homozygous SS
Source text: as §1, §3

βCys93 of Hb = βCys93 of Hb (Homo sapiens, UniProt P68871); test: Reactivity toward βCys93 of Hb (DTNB disulfide exchange, absorbance at 412 nm); assay type: biochemical; conditions: 2 mM compound, Hb 50 μM, four hours at 25° C.
Experimental: Experimental Procedure: Aqueous solution of Hb (50 μM) was mixed with MMA 409 or MMA 410 (2 mM). Additionally, Hb was mixed with phosphate buffered saline (PBS) to serve as a negative control. […] Ethacrynic acid, which is known to bind to the thiols of hemoglobin and thus limits the reaction between DTNB (5,5′-dithiobis-(2-nitrobenzoic acid) and βCys93, was studied as a positive control.^42 The mixtures were incubated for four hours at 25° C., and then centrifuged with washing to separate excess reagents from the Hb. The washed hemoglobin was stored overnight at 4° C. After, 5 μL of 100 mM DTNB was added to 25 μL of each Hb solution, and these solutions were each diluted to 500 μL in 0.1 M phosphate buffer and were incubated for an hour. Another 25 μL of each Hb solution was diluted to 500 μL in buffer to serve as a non-DTNB control. The tubes containing these solutions were centrifuged, and the collected yellow filtrate was quantified by measuring absorbance at 412 nm using a spectrophotometer as previously described.^42

[4] = in-vivo; aldehyde protected by L-cysteine; cited from earlier work

Question: Which results are given for `O=Cc1ccc(CO)o1` [5-HMF, 5-Hydroxymethylfurfural]?
Answer: RBC sickling (reduced to) (intact SS cells; 2 mM compound): 50%; RBC sickling (reduced to) (intact SS cells; 5 mM compound): 14%; activation at 2000 µM (Hb [1]): 33%; time course of biological activity (P50 shift) over 24 hr (Hb [2]): declined rapidly

Question: Which activation at 2000 µM (Hb [1]) does the source give for `CC(=O)/C=C/c1ncc[nH]1` [MMA-301, (E)-4-(1H-imidazol-2-yl)but-3-en-2-one] here?
Answer: 12.7%

Question: And the activation at 5000 µM (Hb [1])?
Answer: 18.2%

Question: For `NC(=O)C(=O)c1ncc[nH]1` [MMA-304], which activation at 2000 µM (Hb [1]) is on record?
Answer: 16.5%

Question: And the activation at 5000 µM (Hb [1])?
Answer: 22.1%

Question: With `O=C(O)/C=C/c1ccc(CO)o1` [MMA-401, (E)-3-(5-(hydroxymethyl)furan-2-yl)acrylic acid] as the compound, how does the melting point read?
Answer: 138 °C

Question: Which melting point does the source give for `NC(=O)/C=C/c1ccc(CO)o1` [MMA-403, (E)-3-(5-(hydroxymethyl)furan-2-yl)acrylamide] here?
Answer: 131 to 156 °C

Question: With `CC(=O)/C=C/c1ccc(CO)o1` [MMA-404, (E)-4-(5-(hydroxymethyl)furan-2-yl)but-3-en-2-one] as the compound, how does the melting point read?
Answer: 20 °C

Question: For `COCc1ccc(C(=O)C(F)(F)F)o1` [MMA-405, 2,2,2-trifluoro-1-(5-(methoxymethyl)furan-2-yl)ethan-1-one], which “effect on Hb affinity for oxygen” value (Hb [1]) is on record?
Answer: no effect

Question: Which “effect on Hb affinity for oxygen” value (Hb [1]) does the source give for `COC(=O)/C=C/c1ccc(CO)o1` [MMA-406, methyl (E)-3-(5-(hydroxymethyl)furan-2-yl)acrylate] here?
Answer: no effect

Question: And the melting point?
Answer: 66 °C

Question: For `C=CC(=O)c1ccc(COc2ccccc2)o1` [MMA-409], which “RBC sickling (reduced to)” value (intact SS cells; 2 mM compound) is on record?
Answer: 49%

Question: What about the “RBC sickling (reduced to)” value (intact SS cells; 5 mM compound) of the same compound?
Answer: 18%

Question: And the activation at 2000 µM (Hb [1])?
Answer: 22%

Question: And the activation at 5000 µM (Hb [1])?
Answer: 52%

Question: And the “Hb modification (adduct formation)” value (Hb [3])?
Answer: significant Hb modification

Question: What about the “adduct formation with globin chain” value (α- or β-globin chains) of the same compound?
Answer: exclusive adduct formation with the β-chain

Question: And the “% free thiols of βCys93” value (βCys93 of Hb)?
Answer: 46%

Question: What about the “time course of biological activity (P50 shift) over 24 hr” value (Hb [2]) of the same compound?
Answer: sustained throughout the 24 hr experiment

Question: For `C#CC(=O)c1ccc(COc2ccccc2)o1` [MMA-410], which “% free thiols of βCys93” value (βCys93 of Hb) is on record?
Answer: 54%

Question: Which “% free thiols of βCys93” value (βCys93 of Hb) does the source give for `C=C(CC)C(=O)c1ccc(OCC(=O)O)c(Cl)c1Cl` [ethacrynic acid, Ethacrynic acid, reference compound] here?
Answer: 54%

Question: Which “extension of 5-HMF half-life” value [4] does the source give for `O=C(O)C1CSC(c2ccc(CO)o2)N1` (centres unmarked) [thiazolidine complex of 5-HMF] here?
Answer: 2 fold

Question: What does the source list for `COc1cc(C=O)ccc1O` [vanillin, reference compound]?
Answer: RBC sickling (reduced to) (intact SS cells; 2 mM compound): 57%; RBC sickling (reduced to) (intact SS cells; 5 mM compound): 36%; activation at 2000 µM (Hb [1]): 12%; activation at 5000 µM (Hb [1]): 27%
